Experiments:
Test in all cases: relative viability (nuclei count vs DMSO), 5 days (fraction); higher = more cells survive
NCI-H596 = system: NCI-H596
Summary of the method: (§1)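 Five library-drug doses in √10 steps were combined with a fixed anchor-drug dose, or a single drug was given alone, by pin tool to lung cancer cell lines in 1536-well plates the day after seeding. Nuclei were stained and counted after 5 days. Relative viability is the nuclei count in treated wells over that in vehicle wells, taken as the median of duplicate plates.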

NCI-H1755 = system: NCI-H1755
Summary of the method: as §1

LK-2 = system: LK-2
Summary of the method: as §1

NCI-H441 = system: NCI-H441
Summary of the method: as §1

NCI-H520 = system: NCI-H520
Summary of the method: as §1

EMC-BAC-2 = system: EMC-BAC-2
Summary of the method: as §1

A-427 = system: A-427
Summary of the method: as §1

NCI-H23 = system: NCI-H23
Summary of the method: as §1

PC-3 [JPC-3] = system: PC-3 [JPC-3]
Summary of the method: as §1

SK-MES-1 = system: SK-MES-1
Summary of the method: as §1

EKVX = system: EKVX
Summary of the method: as §1

H3255 = system: H3255
Summary of the method: as §1

NCI-H1975 = system: NCI-H1975
Summary of the method: as §1

LOU-NH91 = system: LOU-NH91
Summary of the method: as §1

NCI-H1734 = system: NCI-H1734
Summary of the method: as §1

NCI-H2170 = system: NCI-H2170
Summary of the method: as §1

NCI-H1666 = system: NCI-H1666
Summary of the method: as §1

HCC-366 = system: HCC-366
Summary of the method: as §1

COR-L 105 = system: COR-L 105
Summary of the method: as §1

NCI-H1563 = system: NCI-H1563
Summary of the method: as §1

Question: With `CCN(CC)CCCCNc1ncc2cc(-c3cc(OC)cc(OC)c3)c(NC(=O)NC(C)(C)C)nc2n1` + Cc1nc(NC(=O)N2CCC[C@H]2C(N)=O)sc1-c1ccnc(C(C)(C)C(F)(F)F)c1 [Alpelisib] (partner 2 µM) as the molecule, how does the relative viability (NCI-H596; first compound 0.01 µM) read?
Answer: 0.528

Question: What about the relative viability (NCI-H596; first compound 0.03162 µM) of the same molecule?
Answer: 0.48

Question: And the relative viability (NCI-H596; first compound 0.1 µM)?
Answer: 0.478

Question: What about the relative viability (NCI-H596; first compound 0.3162 µM) of the same molecule?
Answer: 0.549

Question: What about the relative viability (NCI-H596; first compound 1 µM) of the same molecule?
Answer: 0.368

Question: And the relative viability (NCI-H1755; first compound 0.01 µM)?
Answer: 0.983

Question: What about the relative viability (NCI-H1755; first compound 0.03162 µM) of the same molecule?
Answer: 0.942

Question: And the relative viability (NCI-H1755; first compound 0.1 µM)?
Answer: 0.983

Question: And the relative viability (NCI-H1755; first compound 0.3162 µM)?
Answer: 1.06

Question: And the relative viability (NCI-H1755; first compound 1 µM)?
Answer: 0.927

Question: What about the relative viability (LK-2; first compound 0.01 µM) of the same molecule?
Answer: 0.679

Question: What about the relative viability (LK-2; first compound 0.03162 µM) of the same molecule?
Answer: 0.891

Question: And the relative viability (LK-2; first compound 0.1 µM)?
Answer: 0.848

Question: And the relative viability (LK-2; first compound 0.3162 µM)?
Answer: 0.6

Question: And the relative viability (LK-2; first compound 1 µM)?
Answer: 0.301

Question: And the relative viability (NCI-H441; first compound 0.01 µM)?
Answer: 0.801

Question: What about the relative viability (NCI-H441; first compound 0.03162 µM) of the same molecule?
Answer: 0.62

Question: What about the relative viability (NCI-H441; first compound 0.1 µM) of the same molecule?
Answer: 0.698

Question: And the relative viability (NCI-H441; first compound 0.3162 µM)?
Answer: 0.708

Question: What about the relative viability (NCI-H441; first compound 1 µM) of the same molecule?
Answer: 0.773

Question: And the relative viability (NCI-H520; first compound 0.01 µM)?
Answer: 1.07

Question: And the relative viability (NCI-H520; first compound 0.03162 µM)?
Answer: 0.898

Question: And the relative viability (NCI-H520; first compound 0.1 µM)?
Answer: 1.16

Question: And the relative viability (NCI-H520; first compound 0.3162 µM)?
Answer: 0.662

Question: What about the relative viability (NCI-H520; first compound 1 µM) of the same molecule?
Answer: 0.332

Question: What about the relative viability (EMC-BAC-2; first compound 0.01 µM) of the same molecule?
Answer: 0.731

Question: What about the relative viability (EMC-BAC-2; first compound 0.03162 µM) of the same molecule?
Answer: 0.798

Question: And the relative viability (EMC-BAC-2; first compound 0.1 µM)?
Answer: 0.811

Question: What about the relative viability (EMC-BAC-2; first compound 0.3162 µM) of the same molecule?
Answer: 0.804

Question: What about the relative viability (EMC-BAC-2; first compound 1 µM) of the same molecule?
Answer: 0.688

Question: And the relative viability (A-427; first compound 0.01 µM)?
Answer: 1.08

Question: And the relative viability (A-427; first compound 0.03162 µM)?
Answer: 1.08

Question: And the relative viability (A-427; first compound 0.1 µM)?
Answer: 1.1

Question: What about the relative viability (A-427; first compound 0.3162 µM) of the same molecule?
Answer: 1.1

Question: And the relative viability (A-427; first compound 1 µM)?
Answer: 0.903

Question: What about the relative viability (NCI-H23; first compound 0.01 µM) of the same molecule?
Answer: 0.706

Question: What about the relative viability (NCI-H23; first compound 0.03162 µM) of the same molecule?
Answer: 0.735

Question: What about the relative viability (NCI-H23; first compound 0.1 µM) of the same molecule?
Answer: 0.851

Question: And the relative viability (NCI-H23; first compound 0.3162 µM)?
Answer: 0.653

Question: What about the relative viability (NCI-H23; first compound 1 µM) of the same molecule?
Answer: 0.678

Question: What about the relative viability (PC-3 [JPC-3]; first compound 0.01 µM) of the same molecule?
Answer: 1.03

Question: What about the relative viability (PC-3 [JPC-3]; first compound 0.03162 µM) of the same molecule?
Answer: 1.02

Question: And the relative viability (PC-3 [JPC-3]; first compound 0.1 µM)?
Answer: 0.99

Question: And the relative viability (PC-3 [JPC-3]; first compound 0.3162 µM)?
Answer: 1.05

Question: And the relative viability (PC-3 [JPC-3]; first compound 1 µM)?
Answer: 1.07

Question: And the relative viability (SK-MES-1; first compound 0.01 µM)?
Answer: 1.12

Question: And the relative viability (SK-MES-1; first compound 0.03162 µM)?
Answer: 0.934

Question: What about the relative viability (SK-MES-1; first compound 0.1 µM) of the same molecule?
Answer: 0.877

Question: What about the relative viability (SK-MES-1; first compound 0.3162 µM) of the same molecule?
Answer: 1.03

Question: What about the relative viability (SK-MES-1; first compound 1 µM) of the same molecule?
Answer: 0.849

Question: And the relative viability (EKVX; first compound 0.01 µM)?
Answer: 0.818

Question: And the relative viability (EKVX; first compound 0.03162 µM)?
Answer: 0.898

Question: What about the relative viability (EKVX; first compound 0.1 µM) of the same molecule?
Answer: 0.875

Question: And the relative viability (EKVX; first compound 0.3162 µM)?
Answer: 1.04

Question: What about the relative viability (EKVX; first compound 1 µM) of the same molecule?
Answer: 0.893

Question: And the relative viability (H3255; first compound 0.01 µM)?
Answer: 0.788

Question: What about the relative viability (H3255; first compound 0.03162 µM) of the same molecule?
Answer: 0.71

Question: What about the relative viability (H3255; first compound 0.1 µM) of the same molecule?
Answer: 0.728

Question: And the relative viability (H3255; first compound 0.3162 µM)?
Answer: 0.713

Question: What about the relative viability (H3255; first compound 1 µM) of the same molecule?
Answer: 0.689

Question: And the relative viability (NCI-H1975; first compound 0.01 µM)?
Answer: 0.699

Question: And the relative viability (NCI-H1975; first compound 0.03162 µM)?
Answer: 0.691

Question: And the relative viability (NCI-H1975; first compound 0.1 µM)?
Answer: 0.707

Question: And the relative viability (NCI-H1975; first compound 0.3162 µM)?
Answer: 0.787

Question: And the relative viability (NCI-H1975; first compound 1 µM)?
Answer: 0.451

Question: And the relative viability (LOU-NH91; first compound 0.01 µM)?
Answer: 0.672

Question: And the relative viability (LOU-NH91; first compound 0.03162 µM)?
Answer: 0.673

Question: And the relative viability (LOU-NH91; first compound 0.1 µM)?
Answer: 0.741

Question: And the relative viability (LOU-NH91; first compound 0.3162 µM)?
Answer: 0.734

Question: What about the relative viability (LOU-NH91; first compound 1 µM) of the same molecule?
Answer: 0.696

Question: And the relative viability (NCI-H1734; first compound 0.01 µM)?
Answer: 0.728

Question: And the relative viability (NCI-H1734; first compound 0.03162 µM)?
Answer: 0.69

Question: What about the relative viability (NCI-H1734; first compound 0.1 µM) of the same molecule?
Answer: 0.713

Question: What about the relative viability (NCI-H1734; first compound 0.3162 µM) of the same molecule?
Answer: 0.707

Question: What about the relative viability (NCI-H1734; first compound 1 µM) of the same molecule?
Answer: 0.708

Question: What about the relative viability (NCI-H2170; first compound 0.01 µM) of the same molecule?
Answer: 0.92

Question: And the relative viability (NCI-H2170; first compound 0.03162 µM)?
Answer: 0.822

Question: And the relative viability (NCI-H2170; first compound 0.1 µM)?
Answer: 0.831

Question: And the relative viability (NCI-H2170; first compound 0.3162 µM)?
Answer: 0.894

Question: What about the relative viability (NCI-H2170; first compound 1 µM) of the same molecule?
Answer: 0.807

Question: And the relative viability (NCI-H1666; first compound 0.01 µM)?
Answer: 0.963

Question: What about the relative viability (NCI-H1666; first compound 0.03162 µM) of the same molecule?
Answer: 0.889

Question: And the relative viability (NCI-H1666; first compound 0.1 µM)?
Answer: 1.02

Question: What about the relative viability (NCI-H1666; first compound 0.3162 µM) of the same molecule?
Answer: 0.995

Question: What about the relative viability (NCI-H1666; first compound 1 µM) of the same molecule?
Answer: 0.74

Question: And the relative viability (HCC-366; first compound 0.01 µM)?
Answer: 0.385

Question: And the relative viability (HCC-366; first compound 0.03162 µM)?
Answer: 0.326

Question: And the relative viability (HCC-366; first compound 0.1 µM)?
Answer: 0.757

Question: What about the relative viability (HCC-366; first compound 0.3162 µM) of the same molecule?
Answer: 0.584

Question: What about the relative viability (HCC-366; first compound 1 µM) of the same molecule?
Answer: 0.47

Question: What about the relative viability (COR-L 105; first compound 0.01 µM) of the same molecule?
Answer: 1

Question: What about the relative viability (COR-L 105; first compound 0.03162 µM) of the same molecule?
Answer: 0.981

Question: What about the relative viability (COR-L 105; first compound 0.1 µM) of the same molecule?
Answer: 1.06

Question: What about the relative viability (COR-L 105; first compound 0.3162 µM) of the same molecule?
Answer: 1.01

Question: And the relative viability (COR-L 105; first compound 1 µM)?
Answer: 0.917

Question: What about the relative viability (NCI-H1563; first compound 0.01 µM) of the same molecule?
Answer: 0.849

Question: What about the relative viability (NCI-H1563; first compound 0.03162 µM) of the same molecule?
Answer: 0.96

Question: What about the relative viability (NCI-H1563; first compound 0.1 µM) of the same molecule?
Answer: 0.896

Question: And the relative viability (NCI-H1563; first compound 0.3162 µM)?
Answer: 0.771

Question: What about the relative viability (NCI-H1563; first compound 1 µM) of the same molecule?
Answer: 0.619
